Where two headings read alike, the source gives them in different places.
Tests used:
APP/PS1 transgenic mice [1] = experiment: Morris water maze test (oriented navigation and probe test); type: in vivo; conditions: 100 mg/kg
Method: The drugs were administered three days after the adaptive feeding. Peanut oil was used as the solvent. The drug was intragastric administered once a day for 15 days. On the 6th to 9th day after the administration, the new object identification test was performed. On the 10th day, the Y-maze test was performed. On the 11th to 15th day, the Morris water maze test was performed to determine the improvement of learning and memory. The administration of the drugs was continued during the behavioral experiment until the animals were sacrificed (16th day).
The experimental device includes a black circular pool with a diameter of 100 cm and a height of 40 cm, and a white platform (safe platform) having a diameter of about 10 cm. The location of the safe platform could be moved. Morris Water Maze Video Detection and Analysis System was provided by the Institute of Materia Medica, China Academy of Medical Sciences. One day before the experiment, water was injected into the black circular pool (water temperature 22±1° C.), and white pigment was added to mix uniformly. The water surface was usually about 1 cm higher than the top of the safe platform. The pool was divided into four quadrants I, II, III and IV, and the safe platform was usually placed in the middle of the quadrant IV. The experiment was divided into two parts: (1) Oriented navigation: the animal grouping was input into a computer software in advance. The position of the safe platform was kept unchanged during the experiment. During the test, the experimental animal facing the pool wall was placed in the water from different inlets, and the computer simultaneously collected data and recorded the time to find the safe platform (escape latency). Data collection automatically stopped when the animal stayed on the safe platform for 10 s. The data acquisition time of the mouse was 60 s. If the animal could not find the safe platform within the specified time, the escape latency was recorded as 60 s. At the same time, the operator induced the animal to reach the safe platform and stay for 10 s. The animal was trained twice a day for 4 consecutive days. (2) Probe test: after the oriented navigation test is completed, the safe platform is removed and the animal was placed in the pool free to explore for 60 s. The camera system automatically recorded the time and distance of the experimental animal swimming in the quadrant of the safe platform within the specified time and the number of times passing through the location of the safe platform.

APP/PS1 transgenic mice [2] = experiment: Nesting experiment; type: in vivo; conditions: at 12 h
From the text: Each mouse was separately housed in a cage. On the first day of the test, two pieces of cotton (5 cm×5 cm) were placed in the cage. […]

[3] = test system: Human cutaneous T-cell lymphoma Hut102 cells; experiment: MTT assay, proliferation of human cutaneous T-cell lymphoma Hut102 cells; type: cell-based
Method: (§1) The survival rate of cells was determined by MTT assay, which is based on the metabolic reduction of 3-(4,5-dimethyl-2thiahiazoyl)-3,5-di-phenyl-tetrazolium bromide (MTT) by viable cells. MTT is a yellow compound, a dye that accepts hydrogen ion, which can act on the respiratory chain in the mitochondria of viable cells. Under the action of succinate dehydrogenase and cytochrome C, the tetrazolium ring was cleaved to form blue Formazan crystals, and the amount of Formazan crystals generated was only proportional to the number of the viable cells. The enzymes disappeared in dead cells, so Formazan crystals could not be dissolved in MTT solution containing 20% sodium dodecyl sulfate (pH 4.7).
(§2) The cells in the logarithmic growth phase were selected and adjusted to an appropriate cell density, seeded in a 96-well plate, 100 μl/well, and cultured in a 37° C., 5% CO2 incubator. The cells were allowed to adhere overnight, then the culture medium was replaced and the drug was added to cultivate for 48 h. A blank control group, a drug administration group and a positive control group were set, with four repeats in each group.
(§3) After 48 h of drug treatment, the cells were incubated with 0.25 mg/ml MTT at 37° C. for 3-4 h, and 100 μl of dimethyl sulfoxide (DMSO) was added to each well after aspirating the culture solution.

[4] = test system: Human leukemia HL60 cells; experiment: MTT assay, proliferation of human leukemia HL60 cells; type: cell-based; conditions: for IC50: read-out: IC50 against HL60 cells
Method: as §1, §2, §3

HDAC = experiment: Verification of HDAC target, HDAC fluorometric activity assay on A549 cell lysate; conditions: 20 μM, Mean
Method: All the compounds were prepared into mother liquors with the same concentration (100 mmol/L) and stored at a temperature of −20° C. […] The DMSO sample was tested at a final concentration of 1%.
A substrate containing an acetylated lysine chain was added to the sample (cell lysate buffer), and the active HDAC in the sample deacetylated the lysine chain on the substrate to activate the substrate. Further, a lysine luminescent reagent is added to generate fluorescence, and the signal was recorded by a microplate reader to indicate the activity of HDAC in the sample.
2) Detection Method • a) Dissolving 50 μg untreated A549 cell lysate in 85 μL (final volume) ddH2O. For the positive blank group, adding 2 μL HeLA nuclear extract first, following by adding 83 μL ddH2O. In the negative blank group, by adding 2 μL Trichostatin A and 83 μL ddH2O. • b) Adding 10 μL 10× buffer to each well. • c) Adding 5 μL HDAC fluorogenic substrate to each well, and adding the drug to make the final concentration reach the set concentration, mixing well, and incubating at 37° C. for 30 min. • d) Adding 10 μL lysine developer, mixing well, then stopping the reaction, incubating for 30 min at 37° C. • e) Detecting the fluorescence value by the microplate reader (condition: emission wavelength/excitation wavelength is 350-380/440-460 nm).

RXR = experiment: Verification of RXR target, dual-luciferase reporter in transfected 293T cells; type: cell-based, Human; conditions: 20 nM, 48 h; for Relative activity (RXR): relative to CON = 1; for Flu (firefly luciferase signal) / Flu/Rlu / Rlu (Renilla luciferase signal): transfected 293T cells
[5] = Homo sapiens, HL-60, read-out: Inhibitive rate (%) against HL60 cells
[6] = HuT-102, 10 μM, Mean ± SE, read-out: Inhibitive rate (%) against Hut102 cells
[7] = Homo sapiens, HL-60, 0.01 μmol/L, Mean ± SE, read-out: Inhibitive rate (%) against HL60 cells
[8] = Homo sapiens, HL-60, 0.1 μmol/L, Mean ± SE, read-out: Inhibitive rate (%) against HL60 cells
[9] = Homo sapiens, HL-60, 1 μmol/L, Mean ± SE, read-out: Inhibitive rate (%) against HL60 cells
[10] = Homo sapiens, HL-60, 10 μmol/L (rescreening), Mean ± SE, read-out: Inhibitive rate (%) against HL60 cells
[11] = Homo sapiens, HL-60, 48 h, 10 μM, 48 h, Mean ± SE, read-out: Inhibitive rate (%) against HL60 cells
[12] = Homo sapiens, HL-60, 48 h, MTT, 48 h

SMILES: C=C(c1ccc(C(=O)O)cc1)c1cc2c(cc1C)C(C)(C)CCC2(C)C [BEXA, bexarotene, reference compound]
- Escape latency vs model group (APP/PS1 transgenic mice [1]; third and fourth days of training): significantly reduced
- Number of times traversing the safe platform vs model group (APP/PS1 transgenic mice [1]; probe test): significantly increased
- Percentage of the swimming distance in the target quadrant vs model group (APP/PS1 transgenic mice [1]; probe test): significantly increased
- Swimming time in the target quadrant vs model group (APP/PS1 transgenic mice [1]; probe test): significantly increased
- Nesting ability vs model group (APP/PS1 transgenic mice [2]; 100 mg/kg): significantly increased
- inhibition at 10 µM ([3]; HuT-102, read-out: Inhibitive rate (%) against Hut102 cells): 6.41 ± 4.1%
- IC50 ([4]; Homo sapiens, HL-60, 48 h): 6.31 ± 0.7 µM
- inhibition at 10 µM ([4]; Homo sapiens, HL-60, 48 h, read-out: Inhibitive rate (%) against HL60 cells): 4 ± 1.14%
- inhibition at 0.01 µM [4, 5]: 16.5 ± 1.66%
- inhibition at 0.1 µM [4, 5]: 15.1 ± 1.44%
- inhibition at 1 µM [4, 5]: 65.5 ± 1.72%
- inhibition at 10 µM [4, 5]: 80.88 ± 0.63%

SMILES: CC1(C)CCC(C)(C)c2c1cc1c(c2NC(=O)c2ccc(C(=O)NCCN)cc2)C(C)(C)CCC1(C)C [OAA-6, N-(2-amino) ethyl-4-[(1,1,4,4,5,5,8,8-octamethyl-1,2,3,4,5,6,7,8-octahydro-9-anthryl)carbamoyl] benzamide]
- Inhibitive rate of HDAC activity of A549 cells (HDAC): −11.07%
- inhibition at 10 µM [3, 6]: 23.9 ± 1.03%
- Relative activity (RXR) (RXR): 1.47
- Flu (firefly luciferase signal) (RXR): 452598
- Flu/Rlu (RXR): 2.59
- Rlu (Renilla luciferase signal) (RXR): 174827
- inhibition at 0.01 µM [4, 7]: 1.2 ± 0.27%
- inhibition at 0.1 µM [4, 8]: 13.4 ± 1.5%
- inhibition at 1 µM [4, 9]: 76.73 ± 0.07%
- inhibition at 10 µM [4, 10]: 79.74 ± 0.46%
- inhibition at 10 µM [4, 11]: > 50%
- IC50 [4, 12]: < 10 µM
- IC50 ([4]; MTT, 48 h): 5.63 ± 1.14 µM

SMILES: CC1(C)CCC(C)(C)c2c1cc1c(c2NC(=O)c2ccc(NC(=O)NCCCC(=O)O)cc2)C(C)(C)CCC1(C)C [OAB-7, 1-(4-carboxypropyl)-3-{4-[(1,1,4,4,5,5,8,8-octamethyl-1,2,3,4,5,6,7,8-octahydro-9-anthryl)carbamoyl]phenyl} urea]
- inhibition at 10 µM [3, 6]: 5.6 ± 3%
- inhibition at 10 µM [4, 11]: 1.76 ± 1.41%

SMILES: COC(=O)Nc1ccc(C(=O)Nc2c3c(cc4c2C(C)(C)CCC4(C)C)C(C)(C)CCC3(C)C)cc1 [OAB-8, 4-[(1,1,4,4,5,5,8,8-octamethyl-1,2,3,4,5,6,7,8-octahydro-9-anthryl)carbamoyl] methyl Phenylcarbamate]
- inhibition at 10 µM [3, 6]: -1.05 ± 3.08%
- inhibition at 10 µM [4, 11]: 7.24 ± 4.74%

SMILES: CC1(C)CCC(C)(C)c2c1cc1c(c2NC(=O)c2ccc(NC(=O)N3CCC(C(=O)O)CC3)cc2)C(C)(C)CCC1(C)C [OAB-9, N-{4-[(1,1,4,4,5,5,8,8-octamethyl-1,2,3,4,5,6,7,8-octahydro-9-anthryl)carbamoyl]phenylcarbamoyl}-4-piperidinyl Formic Acid]
- inhibition at 10 µM [3, 6]: -0.3 ± 1.13%
- inhibition at 10 µM [4, 11]: 8.03 ± 1.07%

SMILES: CC1(C)CCC(C)(C)c2c1cc1c(c2NC(=O)c2ccc(NC(=O)Nc3ccccc3O)cc2)C(C)(C)CCC1(C)C [OAB-10, 1-(2-hydroxyphenyl)-3-{4-[(1,1,4,4,5,5,8,8-octamethyl-1,2,3,4,5,6,7,8-octahydro-9-anthryl)carbamoyl]phenyl} urea]
- inhibition at 10 µM [3, 6]: 17.1 ± 0.93%
- inhibition at 10 µM [4, 11]: 7.21 ± 0.96%

SMILES: CCN(CC)CCNC(=O)Nc1ccc(C(=O)Nc2c3c(cc4c2C(C)(C)CCC4(C)C)C(C)(C)CCC3(C)C)cc1 [OAB-12, 1-[2-(N,N-diethylamino)]ethyl-3-{4-[(1,1,4,4,5,5,8,8-octamethyl-1,2,3,4,5,6,7,8-octahydro-9-anthryl)carbamoyl]phenyl} urea]
- Inhibitive rate of HDAC activity of A549 cells (HDAC): 4.17%
- inhibition at 10 µM [3, 6]: 43.7 ± 3.98%
- Relative activity (RXR) (RXR): 0.85
- Flu (firefly luciferase signal) (RXR): 4013
- Flu/Rlu (RXR): 1.49
- Rlu (Renilla luciferase signal) (RXR): 2686
- inhibition at 0.01 µM [4, 7]: 8.96 ± 1.45%
- inhibition at 0.1 µM [4, 8]: 11.8 ± 1.33%
- inhibition at 1 µM [4, 9]: 73 ± 1.31%
- inhibition at 10 µM [4, 10]: 78.94 ± 0.42%

SMILES: CN(C)CCNC(=O)Nc1ccc(C(=O)Nc2c3c(cc4c2C(C)(C)CCC4(C)C)C(C)(C)CCC3(C)C)cc1 [OAB-13, 1-[2-(N,N-dimethylamino)]ethyl-3-{4-[(1,1,4,4,5,5,8,8-octamethyl-1,2,3,4,5,6,7,8-octahydro-9-anthryl)carbamoyl]phenyl} urea]
- Inhibitive rate of HDAC activity of A549 cells (HDAC): 3.19%
- inhibition at 10 µM [3, 6]: 39.8 ± 0.81%
- Relative activity (RXR) (RXR): 1.11
- Flu (firefly luciferase signal) (RXR): 76228
- Flu/Rlu (RXR): 1.95
- Rlu (Renilla luciferase signal) (RXR): 39025
- inhibition at 0.01 µM [4, 7]: 12.6 ± 0.7%
- inhibition at 0.1 µM [4, 8]: 11.4 ± 0.88%
- inhibition at 1 µM [4, 9]: 53.3 ± 1.22%
- inhibition at 10 µM [4, 10]: 79.93 ± 0.16%
- IC50 [4, 12]: < 10 µM
- IC50 ([4]; MTT, 48 h): 6.65 ± 2.93 µM

SMILES: CC1(C)CCC(C)(C)c2c1cc1c(c2NC(=O)c2ccc(NC(=O)NO)cc2)C(C)(C)CCC1(C)C [OAB-15, 1-hydroxy-3-{4-[(1,1,4,4,5,5,8,8-octamethyl-1,2,3,4,5,6,7,8-octahydro-9-anthryl)carbamoyl]phenyl} urea]
- inhibition at 10 µM [3, 6]: 2.3 ± 3.26%
- inhibition at 10 µM [4, 11]: 0.59 ± 1.44%

SMILES: CC1(C)CCC(C)(C)c2c1cc1c(c2NC(=O)c2ccc(NC(=O)ON)cc2)C(C)(C)CCC1(C)C [OAB-16, 4-[(1,1,4,4,5,5,8,8-octamethyl-1,2,3,4,5,6,7,8-octahydro-9-anthryl)carbamoyl] phenyl Carbamic Acid-O-Amino Ester]
- inhibition at 10 µM [3, 6]: 8.38 ± 2.31%
- inhibition at 10 µM [4, 11]: 1.67 ± 3.24%

SMILES: CC1(C)CCC(C)(C)c2c1cc1c(c2NC(=O)c2ccc(NC(=O)NCCO)cc2)C(C)(C)CCC1(C)C [OAB-17, 1-(2-hydroxy) ethyl-3-{4-[(1,1,4,4,5,5,8,8-octamethyl-1,2,3,4,5,6,7,8-octahydro-9-anthryl)carbamoyl]phenyl} urea]
- inhibition at 10 µM [3, 6]: 9.22 ± 1.29%
- melting point: 284 to 287 °C
- inhibition at 10 µM [4, 11]: 33.6 ± 0.7%

SMILES: CC1(C)CCC(C)(C)c2c1cc1c(c2NC(=O)c2ccc(NC(=O)NCCCO)cc2)C(C)(C)CCC1(C)C [OAB-18, 1-(3-hydroxy) propyl-3-{4-[(1,1,4,4,5,5,8,8-octamethyl-1,2,3,4,5,6,7,8-octahydro-9-anthryl)carbamoyl]phenyl} urea]
- inhibition at 10 µM [3, 6]: 4.32 ± 1.29%
- inhibition at 10 µM [4, 11]: 2.47 ± 2.64%

SMILES: COc1cc2c(cc1OC)C(=O)C(CC1CCN(Cc3ccccc3)CC1)C2 (centres unmarked) [donepezil, reference compound]
- Nesting ability vs model group (APP/PS1 transgenic mice [2]): significantly increased

Reference: patent US10399931B2, “Octahydroanthracene compound, preparation method and application thereof” (SHANDONG XINHUA PHARMACEUTICAL CO., LTD., priority 2016, dated 2019)
